Data set [1] in a line: Solubility test in pH 1.2, 6.8 and 7.4 buffers (HPLC, pH of filtrate, XRPD of remaining solid). Type of data set: physicochemical. Particulars: for change of pH of the buffer solutions: HCl salt: pH 6.8 and 7.4 buffer solutions, K salt: buffers; for solubility compared with Compound 1: buffer solutions; for remaining solid by XRPD: pH 1.2 buffer solution. The protocol: (§1) HPLC ANALYSIS: a representative HPLC method is shown below, which can be used, for example, to analyze the purity, solubility, and stability of the salts herein.
Solubility test: About 15-20 mg of Compound 1 (Form II), K salt (Form III) and HCl salt (Form I) were weighed into vials, and then added 1.5 mL of pH 1.2, pH 6.8 or pH 7.4 buffer to make saturated solutions.
All suspensions were kept shaking with 200 rpm at room temperature for up to 24 hours. At 30 min and 24 hours, the sample solution was filtered and analyzed by HPLC to determine the solubility. The pH of filtrates was also measured. At 24 hours, remaining solids were collected and determined by XRPD.
First, the solubility of Compound 1, HCl salt and K salt was tested in pH 1.2, 6.8 and 7.4 buffer solutions at 25° C. for 30 min and 24 hours. The solubility data and pH value of filtrate were listed in Table 6 and Table 7, respectively.
Additional solubility of Compound 1 and the HCl salt was tested in pH 6.8 and 7.4 for 30 min and 2 hours.

A short description of data set [2]: Solid stability test at 40° C./75% RH (HPLC, XRPD). Particulars: for physical and chemical stability (XRPD and HPLC): 40° C./75% RH during testing period (9 days; HCl salt 7 days); for Purity (% Area) Initilal: solid stability test, 0 days. Type of data set: physicochemical. As for the experimental part:
as §1
Stability test: About 15 mg of Compound 1 (Form II), and K salt (Form III) were weighed into vials, and put at the condition of 40° C./75% RH for 9 days. At 0 and 9 days, the solid sample was dissolved using methanol/water (1/1) to make a solution with a concentration of 0.2 mg/mL. Sample solutions were analyzed by HPLC and solid samples were examined by XRPD.
About 15 mg of Compound 1 HCl salt (Form I) was weighed into vials, and put at the condition of 40° C./75% RH for 7 days. At 0 and 7 days, the solid sample was dissolved using methanol/water (1/1) to make a solution with the concentration of 0.2 mg/mL. The sample solution was analyzed by HPLC and solid sample was analyzed by XRPD.
K salt and Compound 1 was stored at 40° C./75% RH for 9 days, while HCl salt was stored for 7 days.

Data set [3] can be described thus: Dynamic moisture sorption analysis (DVS). Type of data set: physicochemical. As to conditions: for moisture adsorbed in DVS test: at 80% RH. As for the experimental part: Dynamic moisture sorption analysis (DVS): DVS was determined using IGAsorp (Hiden Isochema, UK). The sample was tested at a targeted RH of 10 to 90% full cycle in step mode. The analysis was performed in 10% RH increments.

Data set [4] can be described thus: Physical stability of Form I under heat and high humidity (XRPD). Type of data set: physicochemical. Particulars: for crystalline form by XRPD after storage at high humidity: 25° C./92.5% RH for 10 days; for crystalline form by XRPD after storage under heat: 60° C. for 10 days. The protocol:
Samples of HCl salt Form I was put into the condition of 92.5% RH or 60° C. for 10 days. Then the sample was analyzed by XRPD. […] XRPD patterns were shown in FIG. 1C (92.5% RH for 10 days) and FIG. 1D (60° C. for 10 days).

Data set [5] can be described thus: Grinding of Form I (XRPD). Type of data set: physicochemical. As to conditions: grinded for 2 min and 5 min. The protocol:
Form I of the HCl salt was grinded for 2 min and 5 min.

Data set [6] in a line: Stability of HCl salt Form I in water and in solvent. Type of data set: physicochemical.
A further data set relates to human hepatocyte. Particulars: compared to INCB-24360 and others of WO2014150677 and WO2014150646; cited from earlier work.
Where [7] appears, read: additional test (Table 8), pH 6.8 buffer.
Where [8] appears, read: additional test (Table 8), pH 6.8 buffer, 2 hours.
[9] abbreviates: additional test (Table 8), pH 7.4 buffer.
[10] abbreviates: additional test (Table 8), pH 7.4 buffer, 2 hours.
[11] abbreviates: pH 6.8 buffer, 24 hours, 25° C.
The mark [12] stands for this setting: pH 7.4 buffer, 24 hours, 25° C.
Setting [13] is: pH 1.2 buffer, 24 hours, 25° C.

SMILES strings stand for the structures. Converted amounts (≈) assume the structure as drawn. “Also recorded” adds a separate entry of the source. Counter-ions that a name gives are not always drawn.

On to `CCN(c1ncc(C2(C(=O)O)CCC2)cc1Nc1ccc(Cl)cc1)C1CCOCC1` [HCl salt], for which the “change of pH of the buffer solutions” value in data set [1] was “obviously decreased”. Further, the “Solubility (mg/mL) 30 min” value in data set [1] (setting [7]) came out at 1.62 mg/mL; in data set [1] (setting [9]) it was 3.41 mg/mL; in data set [1] (pH 1.2 buffer, 25° C.), 0.58 mg/mL; in data set [1] (pH 6.8 buffer, 25° C.), 1.45 mg/mL; in data set [1] (pH 7.4 buffer, 25° C.) it was 3.66 mg/mL. In addition, the “Solubility (mg/mL) 2 hours” value was found to be 0.95 mg/mL in data set [1] (setting [8]) and 3.53 mg/mL in data set [1] (setting [10]). The “solubility compared with Compound 1” value in data set [1] is recorded as “higher solubility than Compound 1; also recorded: more soluble than Compound 1”. For the same compound, the solubility at 24 h in data set [1] (pH 1.2 buffer, 25 °C, pH 1.2, simulated gastric fluid, thermodynamic from solid, pH 1.2 buffer, 24 hours, 25° C., read-out: Solubility (mg/mL) 24 hours) is 0.65 mg/mL. In addition, the figures for the “pH value of filtrate 30 min” value in data set [1] (pH 1.2 buffer), in data set [1] (pH 6.8 buffer) and in data set [1] (pH 7.4 buffer) were 1.10, 6.59 and 7.02, respectively. Further, the “pH value of filtrate 24 hours” value in data set [1] (pH 1.2 buffer, 24 hours) amounted to 1.17; in data set [1] (pH 6.8 buffer, 24 hours), 3.34; in data set [1] (pH 7.4 buffer, 24 hours), 6.06. Also, the “change of solubility with time” value in data set [1] (pH 6.8 and 7.4 buffers at 24 hours) was “obviously decreased”; in data set [1] (pH 6.8 buffer at 2 hours), “decreased”; in data set [1] (pH 7.4 buffer, 2 hours versus 30 min), “almost constant”. Also, the “solid by XRPD” value in data set [1] (pH 6.8 and 7.4 buffers, 2 hours) is recorded as “part of HCl salt had been changed to be Compound 1”. The “Solubility (mg/mL) 24 hours” value in data set [1] (setting [11]) turned out to be 0.02 mg/mL; in data set [1] (setting [12]), 0.49 mg/mL. The “physical and chemical stability (XRPD and HPLC)” value (“physical and chemical stability” for short) in data set [2] is “physically and chemically stable”. In data set [2], the “Purity (% Area) Initilal” value worked out at 99.81 % Area. In addition, the “Purity (% Area) 7 days” value in data set [2] (solid, 40° C./75% RH, 7 days) was determined as 99.78 % Area. The “XRPD pattern after DVS test” value in data set [3] is “not changed”; in data set [3] (listed as Form I), “remained unchanged”. For the same compound, the “crystalline form by XRPD after storage at high humidity” value was “unchanged” in data set [4] and “remained unchanged” in data set [4] (listed as Form I). The “crystalline form by XRPD after storage under heat” value in data set [4] is reported as “unchanged”; in data set [4] (listed as Form I) it was “remained unchanged”. In data set [5], the “crystalline form by XRPD after grinding” value is “still Form I”. Moreover, the degradation in solvent entry in data set [6] (in THE at 60° C.) is given as “can be degraded”. Also, in data set [6] (in water), the dissociation in water result is “can dissociate to Compound 1”.

Turning to `CCN(c1ncc(C2(C(=O)O)CCC2)cc1Nc1ccc(Cl)cc1)C1CCOCC1` [K salt], the “change of pH of the buffer solutions” value in data set [1] is “increased”. The “solubility compared with Compound 1” value in data set [1] is reported as “much higher; also recorded: higher solubility than Compound 1”; in data set [1] (listed as potassium salt) it was “more soluble than Compound 1”. In addition, in data set [1] (24 hours), the “remaining solid by XRPD” value is on record as “changed into HCl salt”. Further, the results for the “pH value of filtrate 30 min” value in data set [1] (pH 1.2 buffer), in data set [1] (pH 6.8 buffer) and in data set [1] (pH 7.4 buffer) were 1.18, 6.84 and 7.62, respectively. The “Solubility (mg/mL) 30 min” value in data set [1] (pH 1.2 buffer, 25° C.) was 9.52 mg/mL; in data set [1] (pH 6.8 buffer, 25° C.), 2.55 mg/mL; in data set [1] (pH 7.4 buffer, 25° C.) it was 6.38 mg/mL. The “pH value of filtrate 24 hours” value in data set [1] (pH 1.2 buffer, 24 hours) worked out at 1.23; in data set [1] (pH 6.8 buffer, 24 hours), 7.46; in data set [1] (pH 7.4 buffer, 24 hours), 8.02. For the same compound, the figures for the “Solubility (mg/mL) 24 hours” value in data set [1] (setting [13]), in data set [1] (setting [11]) and in data set [1] (setting [12]) were 0.71 mg/mL, 0.55 mg/mL and 2.25 mg/mL, respectively. The “physical and chemical stability” value in data set [2] is “physically and chemically stable”. The “Purity (% Area) Initilal” value in data set [2] was determined as 99.80 % Area. Also, the “Purity (% Area) 9 days” value in data set [2] (solid, 40° C./75% RH) is recorded as 99.79 % Area. In data set [3] (listed as potassium salt), the “XRPD pattern after DVS test” value is “not changed”. In addition, the “moisture adsorbed in DVS test” value in data set [3] (listed as potassium salt) is given as 1.32%.

Take `CCN(c1ncc(C2(C(=O)O)CCC2)cc1Nc1ccc(Cl)cc1)C1CCOCC1` [Na salt]: the “XRPD pattern after DVS test” value in data set [3] is listed as “changed”; in data set [3] (listed as Form IV) it was “changed into a different form”. For the same compound, the “moisture adsorbed in DVS test” value in data set [3] is recorded as 30.84%; in data set [3] (listed as sodium salt) it was “about 30%”.

In the case of `CCN(c1ncc(C2(C(=O)O)CCC2)cc1Nc1ccc(Cl)cc1)C1CCOCC1` [Compound 1, 1-(5-((4-chlorophenyl)amino)-6-(ethyl(tetrahydro-2H-pyran-4-yl)amino)pyridin-3-yl)cyclobutane-1-carboxylic acid], the “Solubility (mg/mL) 30 min” value in data set [1] (setting [7]) was found to be 0.11 mg/mL (≈ 256 µM); in data set [1] (setting [9]), 0.39 mg/mL (≈ 907 µM); in data set [1] (pH 1.2 buffer, 25° C.), 0.49 mg/mL (≈ 1140 µM); in data set [1] (pH 6.8 buffer, 25° C.) it was 0.13 mg/mL (≈ 302 µM); in data set [1] (pH 7.4 buffer, 25° C.), 0.44 mg/mL (≈ 1020 µM). The “Solubility (mg/mL) 2 hours” value came out at 0.12 mg/mL (≈ 279 µM) in data set [1] (setting [8]) and 0.44 mg/mL (≈ 1020 µM) in data set [1] (setting [10]). In addition, the “remaining solid by XRPD” value in data set [1] (24 hours) was “changed into HCl salt”. For the same compound, the “pH value of filtrate 30 min” value is reported as 1.11 in data set [1] (pH 1.2 buffer), 6.87 in data set [1] (pH 6.8 buffer) and 7.39 in data set [1] (pH 7.4 buffer). Further, the “pH value of filtrate 24 hours” value in data set [1] (pH 1.2 buffer, 24 hours) stood at 1.16; in data set [1] (pH 6.8 buffer, 24 hours), 6.81; in data set [1] (pH 7.4 buffer, 24 hours), 7.38. The “Solubility (mg/mL) 24 hours” value in data set [1] (setting [13]) is given as 0.51 mg/mL (≈ 1190 µM); in data set [1] (setting [11]) it was 0.04 mg/mL (≈ 93 µM); in data set [1] (setting [12]), 0.50 mg/mL (≈ 1160 µM). Moreover, the “physical and chemical stability” value in data set [2] was “physically and chemically stable”. The “Purity (% Area) Initilal” value in data set [2] is listed as 99.53 % Area. For the same compound, in data set [2] (solid, 40° C./75% RH), the “Purity (% Area) 9 days” value was found to be 99.53 % Area. Besides, the “XRPD pattern after DVS test” value in data set [3] was “not changed”; in data set [3] (listed as Form II), “remained unchanged”. For the same compound, in data set [3], the “moisture adsorbed in DVS test” value is “about 0.37%”. Besides, in the data set with human hepatocyte, the “human hepatocyte clearance compared to other IDO inhibitors” value is listed as “better human hepatocyte clearance”.

The values above are taken from patent US12509448B2, “Salts of indoleamine 2,3-dioxygenase inhibitors” (INVENTISBIO CO., LTD., priority 2019, dated 2025).
